Here are results for eight molecules from PMC9821843, “Powerful Potential of Polyfluoroalkyl-Containing 4-Arylhydrazinylidenepyrazol-3-ones for Pharmaceuticals” (Molecules, 2022).

SMILES strings stand for the structures. Marks after values point to notes of the source that are not given here.

Data set [1] is described as follows: Ferric reducing antioxidant power (FRAP) assay. The settings on record: 20 μM; n.a. = inactive. An excerpt:
The FRAP assay measures the ability of anti-oxidants to reduce the ferric 2,4,6-tripyridyl-s-triazine complex [Fe(TPTZ)2]^3+ to the intensely blue ferrous colored complex [Fe(TPTZ)2]^2+ with an absorption maximum at λ = 593 nm. The reducing ability of a compound is an indicator of its potential anti-oxidant activity. 2,4,6-Tris(pyridin-2-yl)-1,3,5-triazine (TPTZ), FeCl3·6H2O, Trolox and DMSO were obtained from Sigma-Aldrich Chemical Co (St. Louis, MO, USA).
The ferric reducing ability of the compounds was determined by the method in microplate adapted version described in [116]. The FRAP reagent was prepared by mixing acetate buffer (0.3 M, pH 3.6), TPTZ (10 mM in 40 mM HCl) and FeCl3·6H2O (20 mM in distilled water) in a ratio of 10:1:1 immediately before use. Compounds were dissolved in DMSO and tested in the concentration 20 μM. The solvent content in the reaction mixture was 4% (v/v). The test compounds (10 μL of 0.5 mM solution) were added to the FRAP reagent solution (240 μL) and mixed thoroughly. The reaction was carried out at 37 °C in the dark; the incubation time was 1 h. The absorbance at 600 nm was monitored spectrophotometrically by a FLUOStar OPTIMA microplate reader (BMG Labtech, Ortenberg, Germany) at 37 °C. Trolox was used as a reference compound. Values were obtained from four replicates of each sample in three independent experiments.
The ferric reducing ability of compounds was expressed as TE units (antioxidant activity in Trolox equivalent), the values calculated as the ratio of the concentrations of Trolox and the test compound resulting in the same effect. The calculations were carried out using Origin 6.1 for Windows. Results were presented as mean ± SEM, calculated using GraphPad Prism version 6.05 for Windows, GraphPad Software.

For data set [2], the target named is porcine liver carboxylesterase (CES, EC 3.1.1.1) (Sus scrofa, UniProt Q29550). Briefly: Porcine liver CES inhibition kinetics (Lineweaver-Burk). The format is biochemical. The settings on record: mixed type inhibition; mean ± SEM. The method, then:
To elucidate the inhibition mechanisms for active compounds, porcine liver CES residual activities were determined in the presence of 3 increasing concentrations of a test compound and 5–6 decreasing concentrations of the substrates. Test compounds were incubated with the enzymes at 25 °C for 5 min, followed by the addition of substrates. A parallel control was made for an assay of the rate of hydrolysis of the same concentrations of substrates in solutions with no inhibitor. Linear regression of 1/V versus 1/[S] double-reciprocal (Lineweaver-Burk) plots was used to determine the inhibition constants for the competitive component (Ki) and noncompetitive component (αKi).
Measurements were performed in a Bio-Rad Benchmark Plus microplate reader. Each experiment was performed in triplicate. Plots, linear regressions and values of IC50, were determined using Origin 6.1 for Windows, OriginLab (Northampton, MA, USA). Results were calculated using GraphPad Prism version 6.05 for Windows, GraphPad Software (La Jolla, CA, USA) and presented as mean ± SEM.

Data set [3] has as its system Vero cells. Kind of data set: Live cell visualization (fluorescent staining, confocal microscopy). Format: cell-based, African green monkey. The following applies: 1 × 10^–4 M, laser excitation. An excerpt: Tartrazine, having 4-(4-sulfonatophenylazo)-5-pyrazolone moiety, is widely used as a synthetic lemon-yellow azo dye for food coloring. Many reports about the pyrazolone-based dyes for different purposes have been published to date. However, there are no reports describing 4-AHPs’ use for the biovisualization of living cells. In this work, we studied the potential of compounds 5f, 6a, 9a for the fluorescent visualization of the Vero cell structure (African green monkey kidney epithelium). Cells stained with the compound at a concentration of 1 × 10^–4 M in DMEM were examined using an LSM-710 laser scanning confocal microscope.
The suitability of substances for fluorescent imaging of cellular structures was studied on Vero cell culture (African green monkey kidney epithelium) and CHO (Chinese hamster ovary). The culture is supported in DMEM (Gibco, Uoltem, USA) with addition of 10% fetal bovine serum (Gibco, Uoltem, USA) and a mixture of gentamicin and streptomycin (Biolot, Moscow, Russia).
The cells were cultivated into specialized Petri dishes with a glass bottom for staining. Staining was carried out with substances at a concentration of 1 × 10^–4 M. For that, the solution of substances was preliminarily diluted with DMSO (Biolot, Moscow, Russia) to a concentration of 1 × 10^–3 M and then with DMEM to the required concentration. Incubation with the substance was carried out for half an hour in an incubator, in the dark at a temperature of 37 °C. […]
The stained cells with the substance were examined using an LSM-710 laser scanning confocal microscope (Carl Zeiss, Oberkochen, Germany). […] Fluorescence was excited by lasers with different wavelengths and registered in lambda mode. This mode gets to collect a full spectrum image by analyzing the intensity of fluorescence in different ranges. […] Taking images in this mode also makes it possible to obtain the fluorescence spectrum of the test substance in the cell. However, a confocal microscope is not a spectrofluorometer and the resulting spectra can have very poor quality, especially at low fluorescence intensity.

Data set [4] concerns Sprague-Dawley rats. Kind of data set: Carrageenan-induced paw edema model (anti-inflammatory activity). The format is in vivo. The settings on record: ip. The method, then:
Anti-inflammatory activity was studied in Sprague-Dawley rats (3 male and 3 female animals per group) by using the common carrageenan-induced paw edema model. The investigated compounds in 1% starch mucilage were intraperitoneally administered at the corresponding dose to a treated group of rodents 30 min before the injection of 0.1 mL of freshly prepared 1% carrageenan (λ-carrageenan, type IV; Sigma Aldrich, an affiliate of Merck KGaA, Darmstadt, Germany) solution in the right hind paw plantar surface. The negative control group was treated with 1% starch mucilage solution only. Diclofenac sodium (10 mg/kg in 1% starch mucilage solution) was used as a reference drug. Paw volumes were measured oncometrically with water plethysmometer (TSE Volume Meter, Bad Homburg, Germany) before carrageenan administration (“zero time”) and at 1st, 3rd, 5th and 24th h after its injection. An anti-inflammatory activity of the sample at a certain time point was calculated in two steps. First, the percentage of an edema increment (i.e., relative volume change for the inflamed paw vs. “zero time” value) both in the negative control group (Pc) and in the treated group (Ptr) were calculated for this time point for each animal. The difference between treated and control group was considered significant at p < 0.05. Then, for such cases, swelling inhibition was calculated according to the formula: 100% (Pc − Ptr)/Pc and considered as a measure of anti-inflammatory activity of the sample.
In general terms: In the carrageenan paw model, swelling and tenderness develop within hours.

Chain of porcine liver carboxylesterase (CES, EC 3.1.1.1) (Q29550 19-566): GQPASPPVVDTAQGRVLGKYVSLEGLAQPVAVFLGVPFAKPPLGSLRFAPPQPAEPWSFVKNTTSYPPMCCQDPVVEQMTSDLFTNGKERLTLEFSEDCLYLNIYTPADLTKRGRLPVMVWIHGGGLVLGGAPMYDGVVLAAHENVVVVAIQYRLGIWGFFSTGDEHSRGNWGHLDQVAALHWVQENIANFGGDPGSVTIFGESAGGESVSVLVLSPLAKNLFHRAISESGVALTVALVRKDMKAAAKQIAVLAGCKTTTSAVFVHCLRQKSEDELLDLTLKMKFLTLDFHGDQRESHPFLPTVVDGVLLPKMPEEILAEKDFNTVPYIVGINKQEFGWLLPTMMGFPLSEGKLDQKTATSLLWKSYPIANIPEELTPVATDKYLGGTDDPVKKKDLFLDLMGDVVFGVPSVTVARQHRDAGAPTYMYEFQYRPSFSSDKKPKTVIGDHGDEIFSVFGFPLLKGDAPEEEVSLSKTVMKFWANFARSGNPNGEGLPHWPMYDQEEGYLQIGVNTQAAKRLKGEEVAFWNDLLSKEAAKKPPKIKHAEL

Consider `O=C1NN=C(C(F)(F)F)/C1=N/Nc1ccccc1` [5a, (Z)-4-(2-Phenylhydrazinylidene)-5-(trifluoromethyl)-2,4-dihydro-3H-pyrazol-3-one], for which the “FRAP (TE, antioxidant activity in Trolox equivalents)” value (shortened to “FRAP”) in data set [1] was found to be 0.09 ± 0.01. Further, the “αKi (non-competitive inhibition constant), CES” value in data set [2] worked out at 0.255 ± 0.013 µM. Take `Cc1ccc(N/N=C2\C(=O)N(c3ccccc3)N=C2C(F)(F)F)cc1` [5f, (4Z)-4-[2-(4-Methylphenyl)hydrazinylidene]-2-phenyl-5-(trifluoromethyl)-2,4-dihydro-3H-pyrazol-3-one]: the “acute phototoxicity during cell visualization” value in data set [3] was “No acute phototoxicity”. Also, in data set [4] (dose 15 mg/kg, n.a. = inactive), the “Inhibition of Paw Edema Development Comparing to Control, after 5 h” value is given as 30.9 * %. The “αKi (non-competitive inhibition constant), CES” value in data set [2] turned out to be 0.735 ± 0.007 µM. `CC1=NNC(=O)/C1=N\Nc1ccc(C)cc1` [9a, (4Z)-5-Methyl-4-[2-(4-methylphenyl)hydrazinylidene]-2,4-dihydro-3H-pyrazol-3-one]: the “acute phototoxicity during cell visualization” value in data set [3] is reported as “No acute phototoxicity”. In data set [1], the “FRAP” value is on record as 0.51 ± 0.01.

In the case of `CC1=NN(c2ccccc2)C(=O)/C1=N\Nc1ccc(C)cc1` [9b, (4Z)-5-Methyl-4-[2-(4-methylphenyl)hydrazinylidene]-2-phenyl-2,4-dihydro-3H-pyrazol-3-one], in data set [1], the “FRAP” value is given as 0.11 ± 0.01. As for `Cc1ccc(N/N=C2\C(=O)NN=C2C(F)(F)C(F)(F)F)cc1` [6a, (4Z)-4-[2-(4-Methylphenyl)hydrazinylidene]-5-(pentafluoroethyl)-2,4-dihydro-3H-pyrazol-3-one], in data set [3], the “acute phototoxicity during cell visualization” value is “No acute phototoxicity”. Moreover, in data set [1], the “FRAP” value is 0.15 ± 0.02.

Turning to `Cc1ccc(N/N=C2\C(=O)NN=C2C(F)(F)F)cc1` [5b, (4Z)-4-[2-(4-Methylphenyl)hydrazinylidene]-5-(trifluoromethyl)-2,4-dihydro-3H-pyrazol-3-one], in data set [1], the “FRAP” value amounted to 0.05 ± 0.02. On to `CS(=O)(=O)c1ccc(N/N=C2\C(=O)N(c3ccccc3)N=C2C(F)(F)F)cc1` [5m, (4Z)-4-(2-[4-(Methylsulfonyl)phenyl]hydrazinylidene)-2-phenyl-5-(trifluoromethyl)-2,4-dihydro-3H-pyrazol-3-one], for which, in data set [4] (dose 25 mg/kg), the “Inhibition of Paw Edema Development Comparing to Control, after 1 h” value is recorded as 49.0 ** %; the “Inhibition of Paw Edema Development Comparing to Control, after 3 h” value is on record as 44.3 * %; the “Inhibition of Paw Edema Development Comparing to Control, after 5 h” value is recorded as 35.3 * %. With `Cc1ccc(N/N=C2\C(=O)N(C)N=C2C(F)(F)F)cc1` [5d, (4Z)-2-Methyl-4-[2-(4-methylphenyl)hydrazinylidene]-5-(trifluoromethyl)-2,4-dihydro-3H-pyrazol-3-one], in data set [2], the “αKi (non-competitive inhibition constant), CES” value is on record as 3.98 ± 0.31 µM.
